Where a SMILES comes first, the peptide text is derived from it. Bridges are numbered along the chain shown (N, C = ends). [ ]: non-standard residue; d: D form. The star is where a group is joined. Ileψ(thiazoline)Cys = CC[C@H](C)[C@H](N)C1=N[C@H](C(=O)*)CS1; dOrn = NCCC[C@@H](N)C(=O)O
How the values were obtained:
[1] = test system: A. macra; assay: Resistance to antibiotics, sensitivity discs on seeded ISP No. 2 agar; format: cell-based
Description: (§1) Resistance to antibiotics was measured by padding antibiotic sensitivity discs onto the surface of seeded ISP No. 2 agar plates.
(§2) Table III lists the resistance of the strain to various antibiotics at the concentrations indicated and compares it to that of A. macra.

[2] = test system: NRRL 15878; assay: as above; format: cell-based, Actinomadura oligospora
Description: as §1, §2

CO[C@H]1/C=C/O[C@@]2(C)Oc3c(C)c(O)c4c(O)c(c(/C=N/N5CCN(C)CC5)c(O)c4c3C2=O)NC(=O)/C(C)=C\C=C\[C@H](C)[C@H](O)[C@@H](C)[C@@H](O)[C@@H](C)[C@H](OC(C)=O)[C@@H]1C [Rifampin]
Resistance to Antibiotics ([1]; Concentration 5 µg): +

[H]/N=C(/N)N[C@H]1[C@H](O)[C@@H](O)[C@H](O[C@@H]2O[C@@H](C)[C@](O)(C=O)[C@H]2O[C@@H]2O[C@@H](CO)[C@H](O)[C@@H](O)[C@@H]2NC)[C@@H](N/C(N)=N\[H])[C@@H]1O [Streptomycin]
Resistance to Antibiotics ([1]; Concentration 10 µg): +

CC(=O)OCC1=C(C(=O)O)N2C(=O)[C@@H](NC(=O)Cc3cccs3)[C@H]2SC1 [Cephalothin]
Resistance to Antibiotics ([1]; Concentration 30 µg): +

CC1(C)S[C@@H]2[C@H](NC(=O)Cc3ccccc3)C(=O)N2[C@H]1C(=O)O [Pencillin G]
Resistance to Antibiotics ([1]; Concentration 10 units): +

CN(C)[C@@H]1C(O)=C(C(N)=O)C(=O)[C@@]2(O)C(O)=C3C(=O)c4c(O)cccc4[C@@](C)(O)[C@H]3C[C@@H]12 [Tetracycline]
Resistance to Antibiotics ([1]; Concentration 30 µg): -

CN[C@H](CC(C)C)C(=O)N[C@H]1C(=O)N[C@@H](CC(N)=O)C(=O)N[C@H]2C(=O)N[C@H]3C(=O)N[C@H](C(=O)N[C@H](C(=O)O)c4cc(O)cc(O)c4-c4cc3ccc4O)[C@H](O)c3ccc(c(Cl)c3)Oc3cc2cc(c3O[C@@H]2O[C@H](CO)[C@@H](O)[C@H](O)[C@H]2O[C@H]2C[C@](C)(N)[C@H](O)[C@H](C)O2)Oc2ccc(cc2Cl)[C@H]1O [Vancomycin]
Resistance to Antibiotics ([2]; Concentration 30 µg): -
Resistance to Antibiotics ([1]; Concentration 30 µg): -

Gentamicin
Resistance to Antibiotics ([2]; Concentration 10 µg): -
Resistance to Antibiotics ([1]; Concentration 10 µg): -

CC[C@H](C)[C@H](N)C1=N[C@H](C(=O)N[C@@H](CC(C)C)C(=O)N[C@H](CCC(=O)O)C(=O)N[C@H](C(=O)N[C@H]2CCCCNC(=O)[C@H](CC(N)=O)NC(=O)[C@@H](CC(=O)O)NC(=O)[C@H](Cc3cnc[nH]3)NC(=O)[C@@H](Cc3ccccc3)NC(=O)[C@H]([C@@H](C)CC)NC(=O)[C@@H](CCCN)NC2=O)[C@@H](C)CC)CS1 [Bacitracin] ({Ileψ(thiazoline)Cys}-L[dE]IK[dOrn]I[dF]H[dD]N; lactam 4-C)
Resistance to Antibiotics ([2]; Concentration 10 units): +
Resistance to Antibiotics ([1]; Concentration 10 units): -
